Columns and labels:
Barnyardgrass [1] = assay: Test C postemergence: barnyardgrass; format: in vivo, Echinochloa crus-galli; settings: 125 g ai/ha, scale 0 to 100, 0 no effect, 100 complete control
Excerpt: (§1) Seeds of plant species selected from blackgrass (Alopecurus myosuroides), bromegrass, downy (downy bromegrass, Bromus tectorum), foxtail, green (green foxtail, Setaria viridis), ryegrass, Italian (Italian ryegrass, Lolium multiflorum), winter wheat (Triticum aestivum), wild oat (Avena fatua), galium (catchweed bedstraw, Galium aparine), bermudagrass (Cynodon dactylon), surinam grass (Brachiaria decumbens), cocklebur (common cocklebur, Xanthium strumarium), corn (Zea mays), large crabgrass (Digitaria sanguinalis), woolly cupgrass (Eriochloa villosa), foxtail, giant (giant foxtail, Setaria faberii), goosegrass (Eleusine indica), johnsongrass (Sorghum halepense), kochia (Kochia scoparia), lambsquarters (Chenopodium album), morningglory (Ipomoea coccinea), nightshade (eastern black nightshade, Solanum ptycanthum), nutsedge, yellow (yellow nutsedge, Cyperus esculentus), pigweed (Amaranthus retroflexus), ragweed (common ragweed, Ambrosia elation), soybean (Glycine max), common (oilseed) sunflower (Helianthus annuus), Russian thistle (Salsola kali) and velvetleaf (Abutilon theophrasti) were planted into a blend of loam soil and sand and treated preemergence with test chemicals formulated in a non-phytotoxic solvent mixture which included a surfactant.
(§2) At the same time, plants selected from these crop and weed species and also barley (winter barley, Hordeum vulgare), canarygrass (Phalaris minor), chickweed (common chickweed, Stellaria media) windgrass (Apera spica-venti) and deadnettle (henbit deadnettle, Lamium amplexicaule) were planted in pots containing Redi-Earth® planting medium (Scotts Company, 14111 Scottslawn Road, Marysville, Ohio 43041) comprising spaghnum peat moss, vermiculite, wetting agent and starter nutrients and treated with postemergence applications of test chemicals formulated in the same manner. Plants ranged in height from 2 to 18 cm (1- to 4-leaf stage) for postemergence treatments.
(§3) Treated plants and controls were maintained in a greenhouse for 13 to 15 days, after which time all species were compared to controls and visually evaluated. Plant response ratings, summarized in Table C, are based on a scale of 0 to 100 where 0 is no effect and 100 is complete control. A dash (-) response means no test result.

Oilseed Rape [2] = assay: Test C postemergence: oilseed rape; format: in vivo
Excerpt: as §2, §3

Oilseed Rape [3] = assay: Test C postemergence: oilseed rape; format: in vivo, Brassica napus; settings: 125 g ai/ha, scale 0 to 100, 0 no effect, 100 complete control
Excerpt: as §1, §2, §3

Waterhemp = assay: Test C postemergence: waterhemp; format: in vivo, Amaranthus rudis; settings: 125 g ai/ha, scale 0 to 100, 0 no effect, 100 complete control
Excerpt: as §1, §2, §3

[4] = system: barnyardgrass (Echinochloa crus-galli); assay: Test C pre-/postemergence: barnyardgrass; format: in vivo; settings: Preemergence, 250 g ai/ha; scale 0 to 100, 0 no effect, 100 complete control
Excerpt: as §1, §2, §3

Barnyardgrass [5] = assay: Test C preemergence: barnyardgrass; format: in vivo, Echinochloa crus-galli
Excerpt: as §1, §3

Oilseed Rape [6] = assay: Test C pre-/postemergence: oilseed rape; format: in vivo; settings: Preemergence, 250 g ai/ha; scale 0 to 100, 0 no effect, 100 complete control
Excerpt: as §1, §2, §3

Oilseed Rape [7] = assay: Test C preemergence: oilseed rape; format: in vivo, Brassica napus; settings: 125 g ai/ha, scale 0 to 100, 0 no effect, 100 complete control
[8] = system: bromegrass, downy (downy bromegrass, Bromus tectorum); assay: Test C pre-/postemergence: bromegrass, downy; format: in vivo
Outline: (§4)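 Visual injury scored 0–100 (100 = complete control) against untreated controls after 13–15 greenhouse days. Surfactant-containing solvent formulations applied either to soil after sowing (loam/sand) or over 1- to 4-leaf plants, 2–18 cm tall.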

[9] = system: foxtail, green (green foxtail, Setaria viridis); assay: Test C pre-/postemergence: foxtail, green; format: in vivo
Outline: as §4

[10] = system: bermudagrass (Cynodon dactylon); assay: Test C pre-/postemergence: bermudagrass; format: in vivo
Outline: as §4

[11] = system: surinam grass (Brachiaria decumbens); assay: Test C pre-/postemergence: surinam grass; format: in vivo
Outline: as §4

[12] = system: woolly cupgrass (Eriochloa villosa); assay: Test C pre-/postemergence: woolly cupgrass; format: in vivo
Outline: as §4

[13] = system: goosegrass (Eleusine indica); assay: Test C pre-/postemergence: goosegrass; format: in vivo
Outline: as §4

[14] = system: barley (winter barley, Hordeum vulgare); assay: Test C postemergence: barley; format: in vivo
Outline: (§5)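 Plants at the 1- to 4-leaf stage (2 to 18 cm tall), grown in pots of peat moss/vermiculite planting medium, received postemergence applications of the formulated test chemicals. After 13 to 15 days in a greenhouse, injury was scored visually versus controls from 0 (no effect) to 100 (complete control).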

[15] = system: windgrass (Apera spica-venti); assay: Test C postemergence: windgrass; format: in vivo
Outline: as §5

[16] = system: deadnettle (henbit deadnettle, Lamium amplexicaule); assay: Test C postemergence: deadnettle; format: in vivo
Outline: as §5

[17] = 31 g ai/ha, scale 0 to 100 (0 no effect, 100 complete control)
[18] = 62 g ai/ha, scale 0 to 100 (0 no effect, 100 complete control)
[19] = 31 g ai/ha, scale of 0 to 100, 0 is no effect, 100 is complete control
[20] = 62 g ai/ha, scale of 0 to 100, 0 is no effect, 100 is complete control
[21] = 125 g ai/ha, scale 0 to 100, 0 no effect, 100 complete control
[22] = Postemergence, 31 g ai/ha, scale 0 to 100 (0 no effect, 100 complete control)
[23] = Postemergence, 62 g ai/ha, scale 0 to 100 (0 no effect, 100 complete control)
[24] = Postemergence, 125 g ai/ha, scale 0 to 100, 0 no effect, 100 complete control
[25] = Postemergence, 250 g ai/ha, scale 0 to 100
[26] = Preemergence, 31 g ai/ha, scale 0 (no effect) to 100 (complete control)
[27] = Preemergence, 62 g ai/ha, scale 0 to 100, 0 no effect, 100 complete control
[28] = Preemergence, 125 g ai/ha, scale 0 to 100, 0 no effect, 100 complete control
[29] = Preemergence, 250 g ai/ha, scale 0 to 100, 0 no effect, 100 complete control
[30] = Postemergence, 250 g ai/ha, scale 0 to 100 (0 no effect, 100 complete control)

## CCc1nn(-c2ccc(F)cc2)nc1Cc1ccnc(C(F)(F)F)c1 [Compound 154]
Barnyardgrass [1]
  Plant response rating, Barnyardgrass: 25
Oilseed Rape [2]; [17]
  Plant response rating, Oilseed Rape: 80
Oilseed Rape [2]; [18]
  Plant response rating, Oilseed Rape: 90
Oilseed Rape [2]; 250 g ai/ha, scale 0 to 100
  Plant response rating, Oilseed Rape: 95
Oilseed Rape [3]
  Plant response rating, Oilseed Rape: 95
Waterhemp
  Plant response rating, Waterhemp: 98
[4]
  Plant response rating, Barnyardgrass: 100
Barnyardgrass [5]; [19]
  Plant response rating, Barnyardgrass: 45
Barnyardgrass [5]; [20]
  Plant response rating, Barnyardgrass: 90
Barnyardgrass [5]; [21]
  Plant response rating, Barnyardgrass: 90
Oilseed Rape [6]
  Plant response rating, Oilseed Rape: 100
Oilseed Rape [7]
  Plant response rating, Oilseed Rape: 90

## CCc1nn(-c2ccc(C(F)(F)F)cc2)nc1Cc1ccnc(C(F)(F)F)c1 [Compound 155]
Barnyardgrass [1]
  Plant response rating, Barnyardgrass: 55
Oilseed Rape [2]; [17]
  Plant response rating, Oilseed Rape: 90
Oilseed Rape [2]; [18]
  Plant response rating, Oilseed Rape: 90
Oilseed Rape [2]; 250 g ai/ha, scale 0 to 100
  Plant response rating, Oilseed Rape: 95
Oilseed Rape [3]
  Plant response rating, Oilseed Rape: 95
Waterhemp
  Plant response rating, Waterhemp: 98
[4]
  Plant response rating, Barnyardgrass: 100
Barnyardgrass [5]; [19]
  Plant response rating, Barnyardgrass: 40
Barnyardgrass [5]; [20]
  Plant response rating, Barnyardgrass: 90
Barnyardgrass [5]; [21]
  Plant response rating, Barnyardgrass: 98
Oilseed Rape [6]
  Plant response rating, Oilseed Rape: 100
Oilseed Rape [7]
  Plant response rating, Oilseed Rape: 90

## CCOCc1nn(-c2ccc(F)cc2)nc1Oc1ccnc(C(F)(F)F)c1 [Compound 163]
[4]
  Plant response rating, Barnyardgrass: 100
Barnyardgrass [5]; [19]
  Plant response rating, Barnyardgrass: 10
Barnyardgrass [5]; [20]
  Plant response rating, Barnyardgrass: 25
Barnyardgrass [5]; [21]
  Plant response rating, Barnyardgrass: 75
Oilseed Rape [6]
  Plant response rating, Oilseed Rape: 95
Oilseed Rape [7]
  Plant response rating, Oilseed Rape: 80

## CCOc1nn(-c2ccc(C(F)(F)F)cc2)nc1Cc1ccnc(C(F)(F)F)c1 [Compound 164, 4-[[5-ethoxy-2-[4-(trifluoromethyl)phenyl]-2H-1,2,3-triazol-4-yl]methyl]-2-(trifluoromethyl)pyridine]
Barnyardgrass [1]
  Plant response rating, Barnyardgrass: 10
Oilseed Rape [2]; [17]
  Plant response rating, Oilseed Rape: 5
Oilseed Rape [2]; [18]
  Plant response rating, Oilseed Rape: 5
Oilseed Rape [2]; 250 g ai/ha, scale 0 to 100
  Plant response rating, Oilseed Rape: 25
Oilseed Rape [3]
  Plant response rating, Oilseed Rape: 20
Waterhemp
  Plant response rating, Waterhemp: 65
[4]
  Plant response rating, Barnyardgrass: 70
Barnyardgrass [5]; 31 g ai/ha, scale 0 (no effect) to 100 (complete control)
  Plant response rating, Barnyardgrass: 5
Barnyardgrass [5]; [20]
  Plant response rating, Barnyardgrass: 15
Barnyardgrass [5]; [21]
  Plant response rating, Barnyardgrass: 25
Oilseed Rape [6]
  Plant response rating, Oilseed Rape: 30

## CCOc1nn(-c2ccc(F)cc2)nc1Cc1ccnc(C(F)(F)F)c1 [Compound 196, 4-[[5-ethoxy-2-(4-fluorophenyl)-2H-1,2,3-triazol-4-yl]methyl]-2-(trifluoromethyl)pyridine]
[8]; [22]
  Plant response rating, Bromegrass, Downy: 50
[8]; [23]
  Plant response rating, Bromegrass, Downy: 50
[8]; [24]
  Plant response rating, Bromegrass, Downy: 70
[8]; [25]
  Plant response rating, Bromegrass, Downy: 80
[8]; [26]
  Plant response rating, Bromegrass, Downy: 60
[8]; [27]
  Plant response rating, Bromegrass, Downy: 95
[8]; [28]
  Plant response rating, Bromegrass, Downy: 100
[8]; [29]
  Plant response rating, Bromegrass, Downy: 100
[9]; [22]
  Plant response rating, Foxtail, Green: 100
[9]; [23]
  Plant response rating, Foxtail, Green: 100
[9]; [24]
  Plant response rating, Foxtail, Green: 100
[9]; [30]
  Plant response rating, Foxtail, Green: 100
[9]; [26]
  Plant response rating, Foxtail, Green: 90
[9]; [27]
  Plant response rating, Foxtail, Green: 90
[9]; [28]
  Plant response rating, Foxtail, Green: 90
[9]; [29]
  Plant response rating, Foxtail, Green: 90
[10]; [22]
  Plant response rating, Bermudagrass: 80
[10]; [23]
  Plant response rating, Bermudagrass: 80
[10]; [24]
  Plant response rating, Bermudagrass: 85
[10]; [25]
  Plant response rating, Bermudagrass: 90
[10]; [26]
  Plant response rating, Bermudagrass: 98
[10]; [27]
  Plant response rating, Bermudagrass: 98
[10]; [28]
  Plant response rating, Bermudagrass: 100
[10]; [29]
  Plant response rating, Bermudagrass: 100
[11]; [22]
  Plant response rating, Surinam Grass: 35
[11]; [23]
  Plant response rating, Surinam Grass: 70
[11]; [24]
  Plant response rating, Surinam Grass: 70
[11]; [30]
  Plant response rating, Surinam Grass: 75
[11]; [26]
  Plant response rating, Surinam Grass: 90
[11]; [27]
  Plant response rating, Surinam Grass: 98
[11]; [28]
  Plant response rating, Surinam Grass: 100
[11]; [29]
  Plant response rating, Surinam Grass: 100
[12]; [22]
  Plant response rating, Cupgrass, Woolly: 30
[12]; [23]
  Plant response rating, Cupgrass, Woolly: 80
[12]; [24]
  Plant response rating, Cupgrass, Woolly: 85
[12]; [25]
  Plant response rating, Cupgrass, Woolly: 90
[12]; [26]
  Plant response rating, Cupgrass, Woolly: 90
[12]; [27]
  Plant response rating, Cupgrass, Woolly: 98
[12]; [28]
  Plant response rating, Cupgrass, Woolly: 100
[12]; [29]
  Plant response rating, Cupgrass, Woolly: 100
[13]; [22]
  Plant response rating, Goosegrass: 75
[13]; [23]
  Plant response rating, Goosegrass: 75
[13]; [24]
  Plant response rating, Goosegrass: 80
[13]; [30]
  Plant response rating, Goosegrass: 85
[13]; [26]
  Plant response rating, Goosegrass: 100
[13]; [27]
  Plant response rating, Goosegrass: 100
[13]; [28]
  Plant response rating, Goosegrass: 100
[13]; [29]
  Plant response rating, Goosegrass: 100
[14]; [17]
  Plant response rating, Barley: 30
[14]; [18]
  Plant response rating, Barley: 40
[14]; [21]
  Plant response rating, Barley: 45
[14]; 250 g ai/ha, scale 0 to 100
  Plant response rating, Barley: 50
[15]; [17]
  Plant response rating, Windgrass: 80
[15]; [18]
  Plant response rating, Windgrass: 80
[15]; [21]
  Plant response rating, Windgrass: 95
[15]; 250 g ai/ha, scale 0 to 100 (0 no effect, 100 complete control)
  Plant response rating, Windgrass: 95
[16]; [17]
  Plant response rating, Deadnettle: 100
[16]; [18]
  Plant response rating, Deadnettle: 100
[16]; [21]
  Plant response rating, Deadnettle: 100
[16]; 250 g ai/ha, scale 0 to 100
  Plant response rating, Deadnettle: 100
